We go through five molecules from patent publication US20240390317A1, “COMBINATION TREATMENT AND/OR PREVENTION OF CARDIAC DISEASES IN NON-HUMAN MAMMALS COMPRISING ONE OR MORE SGLT-2 INHIBITORS AND PIMOBENDAN AND/OR TELMISARTAN” (BOEHRINGER INGELHEIM VETMEDICA GMBH, priority 2023, published 2024).

Assay [1] concerns canine atrial fibrillation model. To be noted: cited from earlier work.
The subject of assay [2] is mitral regurgitation-induced myocardial dysfunction. To be noted: cited from earlier work.
Assay [3] relates to non-diabetic heart failure. To be noted: by enhancing myocardial energetics; cited from earlier work.
The test system of assay [4] is adults with heart failure and reduced or preserved ejection fraction, with and without diabetes. The conditions noted are these: cited from earlier work.
Assay [5] has as its system dogs with a moderate degree of tachypacing-induced heart-failure [dilated cardiomyopathy (DCM) model]. The assay is described as follows: Example 17 laboratory study (DCM model). The conditions noted are these: for creatinine levels / enhancements of diastolic function and performance (i.e., IVRT, E, E′-ave) / enhancements of values indicative of systolic function and performance (i.e., EF, FAS, Simpson EF, s′ wave, LVOT VTI, SV, CO, or SAX Strain) / urine glucose: tachypacing DCM model, three-month dosing. It counts as in vivo, beagle dogs. How it is done:
A laboratory study is conducted to evaluate the effects of the SGLT2 inhibitor Velagliflozin with Pimobendan compared to Pimobendan alone and Velagliflozin alone in dogs with a moderate degree of tachypacing-induced heart-failure [dilated cardiomyopathy (DCM) model]. The study involves 12 beagle dogs, divided into three treatment groups, each containing four dogs, in two dosing phases (totaling eight dogs per group). The treatment groups are Pimobendan, Velagliflozin, and a combination of both (Pimobendan+Velagliflozin).
The dogs are implanted with a pacing generator in the right ventricle (Abbott-Johnson K et al., 2021) and subjected to two rounds of dosing for three months each. The heart failure is induced to a moderate degree (EF=˜40-45%) before the start of each dosing round, with the pacing rate maintained throughout the three-month dosing period. After each round, a washout period of about 21-28 days is given before the next round of dosing begins.
Various data are collected throughout the study, including 6-minute walk test, blood and urine analysis, and echocardiography data. The dogs undergo an anesthetized recovery procedure at the end of each three-month round, where systemic hemodynamics are recorded. A single dose of dobutamine is also administered to measure functional reserve at the end of each 3-month period.

Assay [6] concerns Dogs With Mitral Valve Disease (MVD). The assay is described as follows: Example 16 exploratory clinical field trial, velagliflozin plus pimobendan vs pimobendan. Type of assay: in vivo, dog. How it is done: The described study is a prospective, baseline controlled, unblinded, open-label, multi-site exploratory clinical field trial. Client owned dogs diagnosed with MVD are randomized at different sites to either a pimobendan or a velagliflozin plus pimobendan treatment group. Eight dogs could be successfully enrolled. […] The clinical field trial is further ongoing.
The dogs that enter the study are evaluated regularly including a full physical examination including bodyweight, blood pressure, auscultation of the cardiovascular system, thoracic radiographs to assess heart size, pulmonary edema and congestion, standard echocardiography, ECG, blood and urine evaluation.
The cardiovascular history is evaluated assessing the date of MVD diagnosis and whether there is a history of heart failure. An owner questionnaire is compiled on a regular basis during the study to provide an overview on the overall condition of the dogs, the respiratory rate per minute at resting and the exercise tolerance during the last seven days of treatment.
The dogs included must be diagnosed with MVD stage B2 or stage C via physical examination and echocardiography. Variables of interest are all clinical parameters evaluated in addition to laboratory values, blood pressure, number of events (death or hospitalization for heart failure or euthanasia), the time-to-event duration, the adjustment of diuretic treatment, owner questionnaire data, x-ray results and overall disease progression (requiring additional, prohibited cardiac treatment).
During the ongoing field trial three dogs are receiving a combined velagliflozin (0.5 mg/kg bodyweight orally once daily) and pimobendan treatment (daily dose of 0.5 mg/kg bodyweight orally divided into two portions that are not necessarily equal).
During the ongoing field trial four dogs are receiving a pimobendan only treatment (daily dose of 0.5 mg/kg bodyweight orally divided into two portions that are not necessarily equal).

As to `Cc1ccc([C@@H]2O[C@H](CO)[C@@H](O)[C@H](O)[C@H]2O)cc1Cc1ccc(-c2ccc(F)cc2)s1` [canagliflozin, Canagliflozin], the atrial remodeling result in assay [1] was “suppresses”.
`CCOc1ccc(Cc2cc([C@@H]3O[C@H](CO)[C@@H](O)[C@H](O)[C@H]3O)ccc2Cl)cc1` [dapagliflozin, Dapagliflozin]: in assay [2], the arrhythmogenesis result is listed as “mitigates” and the cardiac hemodynamics entry is reported as “improves”.
For the molecule `OC[C@H]1O[C@@H](c2ccc(Cl)c(Cc3ccc(O[C@H]4CCOC4)cc3)c2)[C@H](O)[C@@H](O)[C@@H]1O` [empagliflozin, Empagliflozin], the “adverse left ventricular remodeling” value in assay [3] is reported as “ameliorates”. The “risk for the composite endpoint of cardiovascular death or hospitalization due to heart failure” value in assay [4] is on record as “reduced”.
Turning to `COc1ccc(-c2nc3cc(C4=NNC(=O)CC4C)ccc3[nH]2)cc1` (stereo not shown) [pimobendan, 4,5-dihydro-6-[2-(4-methoxyphenyl)-1H-benzimidazol-5-yl]-5-methyl-3(2H)-pyridazinone], the “functional support with enhanced systolic and diastolic performance” value in assay [5] (for three months) was “clear and robust functional support”. In assay [5], the creatinine levels result is listed as “does not affect”; the “enhancements of diastolic function and performance (i.e., IVRT, E, E′-ave)” value was ~20%; the “enhancements of values indicative of systolic function and performance (i.e., EF, FAS, Simpson EF, s′ wave, LVOT VTI, SV, CO, or SAX Strain)” value was ~30%; the urine glucose result was “does not affect”. In addition, the MINE score entry in assay [6] (pimobendan only (0.5 mg/kg/day), first dog, Day 88, before: seven, progresses from moderate to severe disease state) is listed as “eight”. In addition, the “other parameters measured (i.e. heart murmur)” value in assay [6] (pimobendan only, first dog) is “mainly unchanged”. Moreover, in assay [6] (pimobendan only, fourth dog, Day 42, Screening 1.88), the “Echo Parameter LA/Ao” value is on record as 1.61. Moreover, in assay [6] (pimobendan only, fourth dog, Day 42, Screening: eight), the MINE score entry is recorded as “six”. In addition, the “overall condition (owner score)” value in assay [6] (pimobendan only, fourth dog, Day 42, Screening: neutral) is given as “good”. Further, the “exercise tolerance in the last 7 days (owner score)” value in assay [6] (pimobendan only, fourth dog, Day 42, Screening: very poor) was “good”. For the same molecule, the “overall condition and exercise tolerance in the last 7 days (owner report)” value in assay [6] (pimobendan only, second dog) is reported as “improvement”. In addition, the “Echo-Parameter LA/Ao” value in assay [6] (pimobendan only, second dog, Day 55, Screening 2.14) came to 1.96. Moreover, the “MINE score (echocardiographic parameters)” value in assay [6] (pimobendan only, second dog, Day 55, stable, severely diseased) was “eight”. In assay [6] (pimobendan only, third dog, Day 48, Screening 1.60), the “Echo-Parameter LA/Ao” value was determined as 1.53. The “overall condition of the owner score” value in assay [6] (pimobendan only, third dog, Day 48, Screening: neutral) is “good”.
For the molecule `N#Cc1ccc([C@@H]2O[C@H](CO)[C@@H](O)[C@H](O)[C@H]2O)cc1Cc1ccc(C2CC2)cc1` [velagliflozin, Velagliflozin], in assay [5], the creatinine levels entry is “lower”; the “enhancements of diastolic function and performance (i.e., IVRT, E, E′-ave)” value is “little-to-no support”; the “enhancements of values indicative of systolic function and performance (i.e., EF, FAS, Simpson EF, s′ wave, LVOT VTI, SV, CO, or SAX Strain)” value is recorded as “little-to-no support”; the urine glucose result is “elevated”.
